{"source": "patent US20050118226A1", "about": "“Methods for treating ACAT-related diseases” (priority 2003, published 2005)", "key": {"adrenal cortical cells": {"test_system": "adrenal cortical cells", "assay": "Adrenal gland histology (hematoxylin and eosin) for CP-113,818 toxicity in hAPP mice", "type": "in vivo", "conditions": "7.2 mg/kg per day, two months, 7.2 mg/kg/day", "procedure": "Animals were sacrificed the day after the last MWM training, on day 57 of treatment. Blood was obtained by cardiac puncture and total serum was used for cholesterol determination. Transcardiac perfusion with 4C PBS was performed, followed by dissection. Brains were removed, divided along the sagittal plane and then either frozen in liquid nitrogen or imersion fixed with 4% paraformaldehyde for histologic evaluation. Liver was frozen in liquid nitrogen, and adrenal glands were fixed in 4% paraformaldehyde followed by standard paraffin embedding and sectioning. Hematoxylin and eosin stained 6-8 um sections were analyzed for evidence of CP-113,818 toxicity.\nTo characterize the effect of CP-113,818 treatment on AD-like pathology, we used hAPP mice that express human APP751 containing the London (V717I) and Swedish (K670M/N671L) mutations under the regulatory control of the murine Thy-1 promoter (mThy1-hAPP751) (Rockenstein et al., 2001). These animals develop detectable plaques in the neocortex and hippocampus at the ages of 4 and 6 months, respectively, and show memory deficits starting at 6 months of age. […] Therefore, we included similar numbers of male and female animals in both placebo and CP-113,818 groups to detect possible gender-specific effects of the inhibitor in our mouse model. […]"}, "Aβ1-40 and Aβ1-42": {"test_system": "Aβ1-40 and Aβ1-42", "assay": "Sandwich ELISA of brain Aβ1-40 and Aβ1-42 in hAPP mice", "type": "in vivo, mouse", "procedure": "For Aβ determinations, frozen hemispheres were first homogenized in TBS-buffer (5 ml) containing a protease inhibitor cocktail (Protease Inhibitor Cocktail Set I, Calbiochem) and then centrifuged at 75000 g for 1 hour, as described elsewhere (Kawarabayashi et al., 2001). Supernatants were saved for soluble Aβ analyses (see below). Pellets were resuspended and further homogenized in 70% formic acid (1 ml), followed by centrifugation at 75000 g for 1 hour. Formic acid-supernatants were neutralized with 1M TRIS (19 ml) and used for ELISA determination (insoluble Aβ). Aβ1-40 and Aβ1-42 were assayed using commercially available ELISA kits (The Genetics Company®, Switzerland). Measurements were performed at least in duplicate. Soluble Aβ ELISAs: secreted Aβ1-40 and Aβ1-42 levels in the TBS homogenate were analyzed by a sandwich ELISA system as described previously using the following antibodies: Aβ40=MM27 33.1.1 capture, MM32 13.1.1 for detection; Aβ42=MM27 33.1.1 capture, MM26 4.1.3 for detection (Suzuki et al., 1994).\nWe next used a sandwich enzyme-linked immunosorbent assay (ELISA) to measure Aβ1-40 and Aβ1-42 levels in 70% formic acid extracts from brain homogenates (“insoluble” Aβ) and in the initial TBS fraction of the same homogenates (soluble Aβ). Similar to plaque load, Aβ levels varied widely, as expected in transgenic mice specifically at early stages of pathology (Johnson-Wood et al., 1997; Kawarabayashi et al., 2001). Treatment with CP-113,818 decreased Aβ1-40 and Aβ1-42 in the formic acid fraction to almost undetectable concentrations. […] Since brain extracts were obtained from entire hemispheres including cortices and hippocampi, the difference between male and female Aβ levels at this age was accentuated by the slowly developing amyloid pathology in male hippocampi (see FIG. 3B). When analyzed according to gender, only female “insoluble” Aβ was sufficiently elevated to obtain a highly significant decrease by CP-113,818 treatment, with Aβ1-40 down by 96% (p<0.014) and Aβ1-42 down by 90% (p<0.014; FIG. 5A). […] This decrease was statistically significant in both genders. Soluble Aβ1-40 levels were close to the limit of detection, but a trend toward decrease was observed (20%) in all animals, significant only in males (FIG. 5B)."}, "[1]": {"test_system": "hAPP mice and non-transgenic littermates", "assay": "Morris water maze spatial learning and memory test", "type": "in vivo, mouse", "procedure": "53 days after the treatment, mice were trained in the Morris water maze (MWM) spatial navigation task in which a mouse swims to find a hidden platform, using visual cues. The task is based on the principle that rodents are highly motivated to escape from a water environment by the quickest, most direct route. This task is carried out in a circular pool (1 meter diameter) filled with water (22±1° C.) and virtually divided into four quadrants. A platform is placed in the southwest quadrant 1 cm beneath the surface of the water. The computer randomly changes the starting positions of an animal. On four consecutive days mice attend three trials per day (each lasting for a maximum of 60 seconds). Escape latency (time to find the hidden platform), and length of swimming path were measured. Significant differences of the behavioral results were calculated with the Mann Whitney U-test.\nTo analyze the effect of CP-113,818 treatment on cognitive function of hAPP mice, we performed Morris water maze spatial learning and memory tests on the animals. Since hAPP mice develop cognitive deficits starting at 6 months of age, the 6.5 month-old animals in our study were only expected to show slight deterioration due to Aβ accumulation, when compared to non-transgenic littermates. […] Clear impairment of cognitive function due to Aβ accumulation was only observed in female transgenic mice. […] This could have been due to a ceiling effect owing to maximum swimming speed. Compared to placebo, the improvement between day 1 and day 3 due to CP-113,818 treatment was significant (p<0.033). […] Although testing of more mice at an older age will be needed to further assess the effect of decreased amyloid pathology on spatial learning and memory, improved performance in a Morris water maze test correlated well with the highly significant decrease of overall plaque load and Aβ in CP-113,818-treated female animals."}, "[2]": {"biological_target": "T1, purified recombinant human BACE1 (Homo sapiens, UniProt P56817)", "T1 construct": "purchased R&D systems", "T1 sequence (P56817 46-501)": "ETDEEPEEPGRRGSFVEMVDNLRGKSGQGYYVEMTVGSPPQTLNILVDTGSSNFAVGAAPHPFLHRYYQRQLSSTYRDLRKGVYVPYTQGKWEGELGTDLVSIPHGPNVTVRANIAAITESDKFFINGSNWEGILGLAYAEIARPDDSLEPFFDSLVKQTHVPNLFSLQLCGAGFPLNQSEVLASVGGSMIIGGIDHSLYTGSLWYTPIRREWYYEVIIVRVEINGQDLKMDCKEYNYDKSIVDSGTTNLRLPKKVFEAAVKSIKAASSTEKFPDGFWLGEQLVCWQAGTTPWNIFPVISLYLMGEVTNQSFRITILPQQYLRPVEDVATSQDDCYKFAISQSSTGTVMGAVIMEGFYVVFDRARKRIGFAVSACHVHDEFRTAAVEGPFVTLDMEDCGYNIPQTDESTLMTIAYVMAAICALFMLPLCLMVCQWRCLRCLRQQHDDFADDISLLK", "assay": "In vitro fluorometric BACE1 activity assay", "type": "biochemical", "conditions": "increasing amounts of compound, 2 hours", "procedure": "A fluorometric β-secretase activity kit was used for detecting BACE1 activity in vitro. Reaction was done according to the manufacturer's instructions with slight modifications. Briefly, 1 μg of purified recombinant human BACE1 (R&D systems) was resuspended in 10 μl of 1× cell extraction buffer (R&D systems) and incubated with EDANS/DABCYL-[…] substrate peptide in the absence or presence of indicated account of CP-113,818 for 2 hours. Released EDANS fluorescence was measured by a fluorescent plate reader (Analyst AD, LJL Biosystems). As a negative control, a specific β-secretase inhibitor, GL-189 (Calbiochem) was added to one of the samples with the indicated concentration."}, "[3]": {"conditions": "female hAPP mice, brain formic acid extracts"}, "[4]": {"conditions": "hAPP mice, all animals, brain formic acid extracts"}}, "note": "“Also recorded” adds a separate entry of the source."}
{"smiles": "CCCCCCCC[C@H](SCCCCCC)C(=O)Nc1c(SC)cc(C)nc1SC", "note": "[CP-113,818]", "values": [{"measurement": "adrenal toxicity (vacuolization in cytoplasm of adrenal cortical cells)", "setting": "adrenal cortical cells", "value": "no histologic evidence of toxicity; also recorded: did not show signs of vacuolization"}, {"measurement": "decrease in insoluble Aβ1-40, females", "setting": "Aβ1-40 and Aβ1-42; [3]", "value": 96, "unit": "%"}, {"measurement": "decrease in insoluble Aβ1-42, females", "setting": "Aβ1-40 and Aβ1-42; [3]", "value": 90, "unit": "%"}, {"measurement": "reduction of soluble Aβ1-42", "setting": "Aβ1-40 and Aβ1-42; hAPP mice, TBS fraction lacking detergents", "value": 34, "unit": "%"}, {"measurement": "decrease in insoluble Aβ1-40", "setting": "Aβ1-40 and Aβ1-42; [4]", "value": 92, "unit": "%"}, {"measurement": "decrease in insoluble Aβ1-42", "setting": "Aβ1-40 and Aβ1-42; [4]", "value": 83, "unit": "%"}, {"measurement": "Aβ1-42/Aβ1-40 ratio", "setting": "Aβ1-40 and Aβ1-42; hAPP mice, insoluble Aβ", "value": "no significant difference"}, {"measurement": "decrease of \"insoluble\" Aβ (summary)", "setting": "Aβ1-40 and Aβ1-42; transgenic mice", "value": "83-99%"}, {"measurement": "spatial learning of all hAPP mice taken together", "setting": "[1]; all hAPP mice regardless of gender", "value": "trend toward acquiring the task quickly"}, {"measurement": "spatial learning performance of female hAPP mice (swimming path, escape latency)", "setting": "[1]; female hAPP mice, days 54-57 of treatment", "value": "reversed the observed impairment; also recorded: improved this performance"}, {"measurement": "spatial learning performance of male hAPP mice", "setting": "[1]; male hAPP mice", "value": "did not affect the performance"}, {"measurement": "swimming path of male non-transgenic animals", "setting": "[1]; male non-transgenic mice, day four, not escape latency", "value": "performed better than the placebo-treated cohort; also recorded: slightly improved"}, {"measurement": "spatial performance of non-transgenic female mice", "setting": "[1]; non-transgenic female mice", "value": "did not affect spatial performance"}, {"measurement": "effect on BACE1 activity in vitro", "setting": "[2]", "value": "unaffected; also recorded: no direct effect"}]}
